Source: patent publication US7115642B2, “Substituted diphenyl isoxazoles, pyrazoles and oxadiazoles useful for treating HCV infection” (priority 2003, dated 2006)
Where two headings read alike, the source gives them in different places.

Experiments:
[1] = system: HCV replicon (5-2 Luc replicon-comprising cells); experiment: HCV replicon assay (luciferase); type: cell-based, Hepatitis C virus; settings: Hepatitis C virus, read-out: Replicon IC50
Method in brief: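 Readout: IC50 from a 50% drop in luciferase signal (Bright-Glo, luminometer), scored + (≤10 μM) or − (>10 μM). Compounds added at various concentrations to 5-2 Luc replicon cells (Huh7 background), pre-incubated 24 h, then incubated 24 h more before reading.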

[2] = system: HCV nonstructural protein NS5A or NS3 in 9–13 replicon cells; experiment: Quantitative Western blot assay; type: cell-based, Hepatitis C virus; settings: Hepatitis C virus, read-out: Western IC50
Procedure: Alternatively, the inhibitory activity of the compounds can be confirmed using a quantitative Western immunoblot assay utilizing antibodies specific for HCV non-structural proteins, such as NS3, NS4A NS5A and NS5B. In one embodiment of this assay, replicon cells are treated with varying concentrations of test compound to determine the concentration of test compound that yields a 50% reduction in the amount of a non-structural protein produced as compared to a control sample (IC50). A single non-structural protein may be quantified or multiple non-structural proteins may be quantified. Antibodies suitable for carrying out such immunoblot assays are available commercially (e.g., from BIODESIGN International, Saco, Me.).
Certain exemplary compounds of the invention were also tested for their ability to inhibit HCV replication using a quantitative Western blot analysis with antibodies specific for the HCV nonstructural protein NS5A or NS3. Actively dividing 9–13 replicon cells were seeded into Swell plates at a density of 1×10^5 cells/well in a volume of 2 ml/well and incubated at 37° C. and 5% CO2 for 24 hours. Various concentrations of test compounds (in a volume of 10 ul) were added to the wells and the cells incubated for another 48 hours. Protein samples were prepared from the cultured cells, resolved on a SDS-PAGE gel and transferred to a nitrocellulose membrane. The membrane was blocked with 5% non-fat milk in PBS for 1 hour at room temperature. Primary antibody (anti NS5A antibody; BIODESIGN International, Saco, Me. or anti NS3 antibody, Rigel) incubation was performed for 1 hour at room temperature, after which the membrane was washed 3 times (for 15 min per time) with PBST (PBS plus 0.1% Tween 20). Horseradish peroxidase conjugated secondary antibody incubation was performed for 1 hour at room temperature and the membrane was washed 3 times (for 15 min per time) with PBST. The membrane was then soaked in substrate solution (Pierce) and exposed to a film or quantified using an imager. In this assay, the amount of test compound that yielded a 50% reduction in the amount of NS5A or NS3 protein translated as compared to a control sample (IC50) was determined.
In TABLE 1, a value of “+” indicates an IC50 of 10 μM or less in the specified assay; a value of “−” indicates an IC50 of greater than 10 μM in the specified assay.

[3] = Cytotoxicity assay (Cell Titer Glo); type: cell-based; settings: human; 48 hr with compound, ATP-dependent Cell Titer Glo assay; read-out: IC50 in cytotoxicity assay (number of viable cells)
Method in brief: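 HCV replicon-bearing liver cells (5-2 Luc, 9–13 or Huh-7) grown 24 h at 37° C, then exposed to a range of compound concentrations for 48 h at 37° C. Viable cell number by ATP-dependent luminescence (Cell Titer Glo).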

[4] = 5-2 Luc replicon cells, luciferase readout
[5] = 9–13 replicon cells, NS5A or NS3 Western blot

Structure (SMILES) | IC50 [1, 4] | IC50 [2, 5] | IC50 at 48 h [3] | IC50 [1] | IC50 [2] | melting point
COC(=O)c1ccc(Cl)c(-c2cc(-c3cccc(NC(=O)C(Cl)Cl)c3)on2)c1Cl [Compound 135, 2,2-Dichloro-N-[3-[3-(3-carbomethoxy-2,6-dichlorophenyl)-5-isoxazolyl]phenyl]Acetamide] | > 10 µM | > 10 µM | > 10 µM | – | – | –
O=C(Nc1cccc(-c2cc(-c3c(Cl)cccc3Cl)no2)c1)C(Cl)Cl [Compound 9, 2,2-Dichloro-N-[3-[3-(2,6-dichlorophenyl)-5-isoxazolyl]phenyl]Acetamide] | – | – | – | < 10 µM | < 10 µM | 167 °C
O=C(Nc1cccc(-c2cc(-c3c(Cl)cccc3Cl)on2)c1)C(Cl)Cl [Compound 5, 2,2-Dichloro-N-[3-[5-(2,6-dichlorophenyl)-3-isoxazolyl]phenyl]Acetamide] | < 10 µM | < 10 µM | > 10 µM | – | – | –
O=C(Nc1cccc(-c2cc(-c3cccc(Cl)c3Cl)no2)c1)C(Cl)Cl [Compound 3, 2,2-Dichloro-N-[3-[3-(2,3-dichlorophenyl)-5-isoxazolyl]phenyl]Acetamide] | > 10 µM | < 10 µM | > 10 µM | – | – | –
O=C(Nc1cc(-c2cc(-c3c(Cl)cccc3Cl)no2)ccc1F)C(Cl)Cl [Compound 1, 2,2-Dichloro-N-[3-[3-(2,6-dichlorophenyl)-5-isoxazolyl]-6-fluorophenyl]Acetamide] | < 10 µM | < 10 µM | > 10 µM | – | – | –
O=C(CI)Nc1cccc(-c2cc(-c3c(Cl)cccc3Cl)no2)c1 [Compound 101, 2-Iodo-N-[3-[3-(2,6-dichlorophenyl)-5-isoxazolyl]phenyl]Acetamide] | < 10 µM | > 10 µM | > 10 µM | – | – | –
